Experimental data as given in ChEMBL document CHEMBL5050844 (2019).
Values belong to the compound of their own block, whether it stands above or below them.

Legend:
[1] = Induction of anti-CD3/CD28 antibodies-stimulated human T cell activation at 4 uM assessed fold increase in IL-2 secretion measured by ELISA assay; assay type: functional, T cell line
[2] = Induction of anti-CD3/CD28 antibodies-stimulated human T cell activation at 1 uM assessed fold increase in IL-2 secretion measured by ELISA assay; assay type: functional, T cell line
[3] = Induction of anti-CD3 antibodies-stimulated human T cell activation at 1 uM assessed fold increase in IL-2 secretion measured by ELISA assay; assay type: functional, T cell line; further: reference of the scale not given here
[4] = Induction of anti-CD3 antibodies-stimulated human T cell activation at 8 uM assessed fold increase in CD25 expression measured by ELISA assay; assay type: functional, T cell line; settings: 8 µM; further: reference of the scale not given here
[5] = Induction of anti-CD3/CD28 antibodies-stimulated human T cell activation at 0.3 uM assessed fold increase in IL-2 secretion measured by ELISA assay; assay type: functional, T cell line
[6] = Induction of anti-CD3/CD28 antibodies-stimulated human T cell activation at 1 uM assessed fold increase in CD25 expression measured by ELISA assay; assay type: functional, T cell line
[7] = target: E3 ubiquitin-protein ligase CBL-B (Homo sapiens, UniProt Q13191); assay: Inhibition of N-terminal Avi-tagged human CBL-B (36 to 427 residues) incubated with 60 nM Src kinase for 1.5 hrs followed by incubation with fluorescently labeled UbcH5B-Ub for 1 hr and measured by TR-FRET assay; assay type: single protein
Sequence of E3 ubiquitin-protein ligase CBL-B (Q13191 whole entry, the tested form may be a part): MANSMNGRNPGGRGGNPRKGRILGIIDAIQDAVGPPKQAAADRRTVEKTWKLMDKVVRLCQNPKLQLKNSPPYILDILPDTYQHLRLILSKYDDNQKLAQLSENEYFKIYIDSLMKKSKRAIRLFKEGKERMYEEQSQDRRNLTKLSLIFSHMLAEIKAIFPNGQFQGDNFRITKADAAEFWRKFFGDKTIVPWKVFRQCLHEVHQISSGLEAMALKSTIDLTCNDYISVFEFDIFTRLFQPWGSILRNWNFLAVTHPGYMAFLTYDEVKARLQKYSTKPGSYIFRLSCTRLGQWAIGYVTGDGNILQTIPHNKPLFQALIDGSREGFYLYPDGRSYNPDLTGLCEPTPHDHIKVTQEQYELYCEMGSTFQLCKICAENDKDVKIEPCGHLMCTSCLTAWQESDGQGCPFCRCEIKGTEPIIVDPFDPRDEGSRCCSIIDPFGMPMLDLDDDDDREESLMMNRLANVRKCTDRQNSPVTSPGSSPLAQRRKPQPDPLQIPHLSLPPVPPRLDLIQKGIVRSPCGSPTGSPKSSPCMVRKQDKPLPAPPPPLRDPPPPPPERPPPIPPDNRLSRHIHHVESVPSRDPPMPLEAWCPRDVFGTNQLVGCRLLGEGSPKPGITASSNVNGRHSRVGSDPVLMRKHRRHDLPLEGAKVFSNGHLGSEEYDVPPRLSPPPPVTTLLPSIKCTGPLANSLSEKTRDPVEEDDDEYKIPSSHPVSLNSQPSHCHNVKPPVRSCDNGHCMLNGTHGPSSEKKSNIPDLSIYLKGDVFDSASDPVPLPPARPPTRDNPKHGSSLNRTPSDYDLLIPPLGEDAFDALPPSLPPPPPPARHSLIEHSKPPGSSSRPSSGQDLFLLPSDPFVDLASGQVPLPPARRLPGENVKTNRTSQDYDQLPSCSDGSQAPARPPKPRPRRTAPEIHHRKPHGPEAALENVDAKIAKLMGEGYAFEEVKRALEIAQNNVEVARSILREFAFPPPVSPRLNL

[8] = Induction of anti-CD3 antibodies-stimulated human T cell activation at 1 uM assessed fold increase in CD25 expression measured by ELISA assay; assay type: functional, T cell line; further: reference of the scale not given here
[9] = Induction of anti-CD3/CD28 antibodies-stimulated human T cell activation at 0.3 uM assessed fold increase in CD25 expression measured by ELISA assay; assay type: functional, T cell line

SMILES: C[C@H](Cc1nncn1C)c1cccc(N2Cc3c(ccnc3C(C)(C)F)C2=O)c1
fold change (FC) [1]: >=7.5

SMILES: Cc1ccc(C(=O)Nc2cccc([C@@H](C)Cc3nccn3C)c2)nc1C1CC1
fold change (FC) ([2]; 1 µM): 1.01 | fold change (FC) ([3]; 1 µM): <=0.05 | fold change (FC) [4]: 0.601 | fold change (FC) ([5]; 0.3 µM): 1.01 | fold change (FC) ([1]; 4 µM): 1.01

IC50 [7]: < 100 nM
SMILES: Cc1conc1CC1(c2cccc(NC(=O)c3cc(CN4CCC5(CC5)C4)cc(C4CC4)n3)c2)COC1
fold change (FC) [2]: >=7.5 | fold change (FC) [3]: >=0.201 | fold change (FC) [6]: 1.31 | fold change (FC) [5]: >=7.5 | fold change (FC) [8]: >=1.001 | fold change (FC) [9]: 1.31

IC50 [7]: < 100 nM
SMILES: CC(c1cc2c(c(C3CC3)n1)CN(c1cccc(C3(Cc4nncn4C)COC3)c1)C2=O)N1CC2(CC2)C1 (stereo not drawn)
fold change (FC) [2]: 2.51 | fold change (FC) [3]: <=0.05 | fold change (FC) [6]: 1.01 | fold change (FC) [5]: 1.01 | fold change (FC) [8]: 0.601 | fold change (FC) [9]: 1.01

SMILES: CN1C2CCC1CN(c1cc3c(c(C(F)(F)F)c1)CN(c1cccc([C@@](C)(F)C(F)(F)c4nncn4C)c1)C3=O)C2
fold change (FC) [2]: 2.51 | fold change (FC) [3]: 0.101 | fold change (FC) [6]: 1.31 | fold change (FC) [5]: 1.01 | IC50 [7]: < 100 nM | fold change (FC) [8]: 0.801 | fold change (FC) [9]: 1.01

IC50 [7]: < 100 nM
SMILES: Cn1cnnc1CC1(c2cccc(N3Cc4c(cc(CN5CC[C@H](CO)C(F)(F)C5)cc4C(F)(F)F)C3=O)c2)COC1
fold change (FC) [2]: >=7.5 | fold change (FC) [3]: 0.151 | fold change (FC) [6]: 1.31 | fold change (FC) [5]: >=7.5 | fold change (FC) [8]: >=1.001 | fold change (FC) [9]: 1.31

SMILES: Cn1cnnc1CC1(c2cccc(N3Cc4c(cc(C5CN6CCC5CC6)cc4C(F)(F)F)C3=O)c2)COC1 (stereo not drawn)
fold change (FC) [2]: 5 | fold change (FC) [3]: <=0.05 | fold change (FC) [6]: 1.01 | fold change (FC) [5]: 2.51 | IC50 [7]: < 100 nM | fold change (FC) [8]: 0.601 | fold change (FC) [9]: 1.01

IC50 [7]: < 100 nM
SMILES: Cn1cnnc1CC1(c2cccc(N3Cc4c(cc(C(F)(F)CO)cc4C(F)(F)F)C3=O)c2)COC1
fold change (FC) [2]: 1.01 | fold change (FC) [3]: 0.101 | fold change (FC) [6]: 1.01 | fold change (FC) [5]: 1.01 | fold change (FC) [8]: 0.801 | fold change (FC) [9]: 1.01

IC50 [7]: < 100 nM
SMILES: Cn1cnnc1CC1(c2cccc(N3Cc4c(cc(N5CCC(C(F)F)C5)cc4C(F)(F)F)C3=O)c2)COC1 (stereo not drawn)
fold change (FC) [2]: 2.51 | fold change (FC) [3]: <=0.05 | fold change (FC) [6]: 1.01 | fold change (FC) [5]: 1.01 | fold change (FC) [8]: 0.601 | fold change (FC) [9]: 1.01

IC50 [7]: < 100 nM
SMILES: Cc1conc1CC1(c2cccc(N3Cc4c(cc(CN5CCC6(CC6)C5)cc4C(F)(F)F)C3=O)c2)COC1
fold change (FC) [2]: >=7.5 | fold change (FC) [3]: >=0.201 | fold change (FC) [6]: 1.31 | fold change (FC) [5]: >=7.5 | fold change (FC) [8]: >=1.001 | fold change (FC) [9]: 1.31

IC50 [7]: < 100 nM
SMILES: CN1CC2CC1CN2c1cc2c(c(C(F)(F)F)c1)CN(c1cccc([C@@](C)(F)C(F)(F)c3nncn3C)c1)C2=O (single isomer, unassigned; 563)
fold change (FC) [2]: 2.51 | fold change (FC) [3]: 0.051 | fold change (FC) [6]: 1.31 | fold change (FC) [5]: 1.01 | fold change (FC) [8]: 0.801 | fold change (FC) [9]: 1.01

IC50 [7]: < 100 nM
SMILES: Cn1cnnc1CC1(c2cccc(N3Cc4c(cc(N5CC(C(F)(F)F)C5)cc4C(F)(F)F)C3=O)c2)COC1
fold change (FC) [2]: >=7.5 | fold change (FC) [3]: 0.051 | fold change (FC) [6]: 1.01 | fold change (FC) [5]: 2.51 | fold change (FC) [8]: >=1.001 | fold change (FC) [9]: 1.01

IC50 [7]: < 100 nM
SMILES: Cn1cnnc1[C@H](F)C1(c2cccc(N3Cc4c(cc(CN5CCCC5)cc4C(F)(F)F)C3=O)c2)COC1
fold change (FC) [2]: >=7.5 | fold change (FC) [3]: >=0.201 | fold change (FC) [6]: 1.31 | fold change (FC) [5]: >=7.5 | fold change (FC) [8]: >=1.001 | fold change (FC) [9]: 1.31

IC50 [7]: ≤ 1000 nM
SMILES: C[C@H](Cc1nncn1C)c1cc(C2CCOC2)nc(N2Cc3c(cccc3C(F)(F)F)C2=O)c1 (stereo partly drawn)
fold change (FC) [2]: 1.01 | fold change (FC) [3]: <=0.05 | fold change (FC) [6]: 1.01 | fold change (FC) [5]: 1.01 | fold change (FC) [8]: <=0.6 | fold change (FC) [9]: 1.01

IC50 [7]: < 100 nM
SMILES: CC1CCN(Cc2cc3c(c(C(F)(F)F)c2)CN(c2cccc(C4(Cc5nncn5C)COC4)c2)C3=O)CC1(F)F (stereo not drawn)
fold change (FC) [2]: >=7.5 | fold change (FC) [3]: >=0.201 | fold change (FC) [6]: 1.31 | fold change (FC) [5]: >=7.5 | fold change (FC) [8]: >=1.001 | fold change (FC) [9]: 1.31

IC50 [7]: < 100 nM
SMILES: Cn1cnnc1CC1(c2cccc(N3Cc4c(cc(C5CC5)nc4C4CC4)C3=O)c2)COC1
fold change (FC) [2]: 1.01 | fold change (FC) [3]: 0.101 | fold change (FC) [6]: 1.01 | fold change (FC) [5]: 1.01 | fold change (FC) [8]: 0.801 | fold change (FC) [9]: 1.01

IC50 [7]: < 100 nM
SMILES: CCN1CCN(Cc2cc3c(c(C(F)(F)F)c2)CN(c2cccc(C4(Cc5nncn5C)COC4)c2)C3=O)CC1
fold change (FC) [2]: >=7.5 | fold change (FC) [3]: >=0.201 | fold change (FC) [6]: 1.31 | fold change (FC) [5]: 5 | fold change (FC) [8]: >=1.001 | fold change (FC) [9]: 1.31

IC50 [7]: < 100 nM
SMILES: Cn1cnnc1CC1(c2cccc(NC(=O)c3cc(CN4C[C@@H]5[C@H](C4)C5(F)F)cc(C4CC4)n3)c2)COC1
fold change (FC) [2]: >=7.5 | fold change (FC) [3]: >=0.201 | fold change (FC) [6]: 1.31 | fold change (FC) [5]: >=7.5 | fold change (FC) [8]: >=1.001 | fold change (FC) [9]: 1.31

IC50 [7]: < 100 nM
SMILES: Cc1cc(C(=O)Nc2cccc(C3(Cc4nncn4C)COC3)c2)n2ncc(C)c2n1
fold change (FC) [2]: 2.51 | fold change (FC) [3]: 0.051 | fold change (FC) [6]: 1.01 | fold change (FC) [5]: 2.51 | fold change (FC) [8]: 0.801 | fold change (FC) [9]: 1.01

IC50 [7]: < 100 nM
SMILES: CC(c1cc(C(=O)Nc2cccc(C3(Cc4nncn4C)COC3)c2)nc(C2CC2)n1)N1CCC2(CC2)C1 (single isomer, unassigned; 592a)
fold change (FC) [2]: >=7.5 | fold change (FC) [3]: >=0.201 | fold change (FC) [6]: 1.01 | fold change (FC) [5]: 5 | fold change (FC) [8]: >=1.001 | fold change (FC) [9]: 1.01

IC50 [7]: < 100 nM
SMILES: C[C@@H](c1cc2c(c(C(F)(F)F)c1)CN(c1cccc(C3([C@H](F)c4nncn4C)COC3)c1)C2=O)N1CCC2(CC2)C1 (single isomer, unassigned)
fold change (FC) [2]: >=7.5 | fold change (FC) [3]: >=0.201 | fold change (FC) [6]: >=1.76 | fold change (FC) [5]: >=7.5 | fold change (FC) [8]: >=1.001 | fold change (FC) [9]: >=1.76

IC50 [7]: < 100 nM
SMILES: CC[C@H](c1cc2c(c(C(F)(F)F)c1)CN(c1cccc(C3(Cc4nncn4C)COC3)c1)C2=O)N1CC[C@H](F)C1
fold change (FC) [2]: >=7.5 | fold change (FC) [3]: >=0.201 | fold change (FC) [6]: 1.51 | fold change (FC) [5]: >=7.5 | fold change (FC) [8]: >=1.001 | fold change (FC) [9]: 1.51

IC50 [7]: < 100 nM
SMILES: CN1CCN(c2cc3c(c(C(F)(F)F)c2)CN(c2cccc(C4(Cc5nncn5C)COC4)c2)C3=O)CC12CC2
fold change (FC) [2]: 5 | fold change (FC) [3]: 0.151 | fold change (FC) [6]: 1.51 | fold change (FC) [5]: 2.51 | fold change (FC) [8]: >=1.001 | fold change (FC) [9]: 1.31

IC50 [7]: < 100 nM
SMILES: CCOc1cc(NC(=O)c2cc(C)nc(C3CC3)n2)cc(C2(Cc3nncn3C)COC2)c1
fold change (FC) [2]: 5 | fold change (FC) [3]: 0.051 | fold change (FC) [6]: 1.01 | fold change (FC) [5]: 2.51 | fold change (FC) [8]: 0.801 | fold change (FC) [9]: 1.01

IC50 [7]: < 100 nM
SMILES: CC(c1cc(C(=O)Nc2cccc(C3(Cc4nncn4C)COC3)c2)nc(C2CC2)n1)N1CCCC1 (stereo not drawn)
fold change (FC) [2]: >=7.5 | fold change (FC) [3]: >=0.201 | fold change (FC) [6]: 1.31 | fold change (FC) [5]: >=7.5 | fold change (FC) [8]: >=1.001 | fold change (FC) [9]: 1.31

IC50 [7]: < 100 nM
SMILES: Cn1cnnc1[C@H](F)C1(c2cccc(N3Cc4c(cc(CN5CCCCC5)cc4C(F)(F)F)C3=O)c2)COC1
fold change (FC) [2]: >=7.5 | fold change (FC) [3]: >=0.201 | fold change (FC) [6]: 1.01 | fold change (FC) [5]: >=7.5 | fold change (FC) [8]: >=1.001 | fold change (FC) [9]: 1.01

IC50 [7]: < 100 nM
SMILES: Cn1cnnc1CC1(c2cccc(NC(=O)c3cc(CN4CCC5CC54)cc(C4CC4)n3)c2)COC1 (stereo not drawn)
fold change (FC) [2]: >=7.5 | fold change (FC) [3]: >=0.201 | fold change (FC) [6]: 1.31 | fold change (FC) [5]: >=7.5 | fold change (FC) [8]: >=1.001 | fold change (FC) [9]: 1.31

IC50 [7]: < 100 nM
SMILES: CC1CN(c2cc3c(c(C(F)(F)F)c2)CN(c2cccc(C4(Cc5nncn5C)COC4)c2)C3=O)C1
fold change (FC) [2]: 2.51 | fold change (FC) [3]: 0.101 | fold change (FC) [6]: 1.01 | fold change (FC) [5]: 1.01 | fold change (FC) [8]: 0.601 | fold change (FC) [9]: 1.01
